These results are taken from EP4711366A1, “PYRIMIDO MACROHETEROCYCLIC COMPOUND AS WEE1-YES DUAL-TARGET INHIBITOR AND USE THEREOF” (Mindrank AI Ltd., priority 2023, dated 2024).

Experiment [1] concerns A427 cells. In words: Tumor cell proliferation inhibitory activity assay (CCK-8). It is filed as cell-based, Human. The note with it: for IC50: CCK-8; for activity in inhibiting cancer cell proliferation compared with reference compound Debio 0123 or ZN-c3: comparison in words. As for the experimental part:
Human lung cancer A427 cells are cancer cells reported to be sensitive to wee1 inhibitors. In this assay, the anti-cancer effects of the compounds of the present disclosure were verified by assessing the activity of the test substances in inhibiting A427 cell proliferation.
A427 cells were cultured according to the cell culture instructions, and cells in the logarithmic growth phase were collected, counted, resuspended in a complete culture medium, and inoculated into a 96-well plate at a cell concentration of 100 µL/3000 cells/well. The cells were incubated in an incubator at 37 °C with 100% relative humidity and 5% CO2 for 24 h.
The compounds to be tested were dissolved in DMSO and diluted 4-fold with a culture medium from 10 µM to 10 concentration gradients.
The culture medium waste was pipetted off, and 100 µL of the formulated culture medium of the compound to be tested was added to each well. The cells were incubated in an incubator at 37 °C with 100% relative humidity and 5% CO2 for 72 h.
The plate was taken out, the CCK-8 reagent was added at 10 µL/well, and the plate was incubated in an incubator at 37 °C for 2-4 h.
The cell growth inhibition rates of the drugs were calculated using the following formula: Cell growth inhibition rate% = [(Ac−As)/(Ac−Ab)] × 100% [formula] • As: the OA of the samples (cells + CCK-8 + compounds to be tested) • Ac: the OA of the normal growth cell control (cells + CCK-8) • Ab: the OA of the blank control (culture medium + CCK-8)
IC50 curve fitting was performed using the software Graphpad Prism 6 and the calculation formula XY-analysis/Nonlinear regression(curve fit)/Dose response-Inhibition/log(inhibitor)vs. response-Variable slope(four parameters), and the IC50 values were calculated. Table 1. Data analysis and results for some representative compounds

Experiment [2] has as its target Wee1 kinase (Homo sapiens, UniProt P30291). Put plainly: WEE1 protein kinase inhibitory activity assay (ADP-GLO luminescence). It is filed as biochemical. The note with it: for IC50: Wee1 10 ng/well, ATP 10 µM, 3 h, 37 °C; for inhibition of the Weel target (in words): summary statement on the assay results. As for the experimental part:
The influence of the compound MRANK-106 of the present disclosure on the kinase activity of Weel was assessed using an in vitro kinase reaction system.
Table 2-1. Information about reagents and consumables
① 1× kinase buffer: A 5× kinase buffer was diluted with ddH2O to make a 1× kinase buffer. Table 2-3. The reagent components added to the 1× kinase buffer
③ 5× enzyme working solution: The optimization of the enzyme concentration had been completed in previous work, and the concentration of the reagent used in the screening is shown in Table 2-4. A 5× enzyme working solution of the enzyme was formulated using the 1× kinase buffer.
④ Compound formulation: A 10 mM mother liquor was formulated using DMSO, aliquoted, and then stored at -20 °C. Immediately before use, the mother liquor was thawed, diluted with DMSO to 1 mM, serially diluted 4-fold to 10 concentration points, and then 40-fold diluted with the 1× kinase buffer to give a 2.5× working solution. Table 2-4. The experimental conditions for the kinase activity assay
After the above reagents were formulated and equilibrated to room temperature, 4 µL of the diluted solution of the compound to be tested and 2 µL of the formulated enzyme solution were added to reaction wells. After shaking and centrifugation, the plate was incubated at room temperature for 15 min, and 4 µL of the ATP solution was then added to start a kinase reaction. After 3 h of reaction at 37 °C, 10 µL of an ADP-GLO reagent was added. After thorough mixing, the mixture was left to react at room temperature for 40 min, and 20 µL of a detection reagent was then added. After 30 min of reaction at room temperature, the luminescence signals were detected using a SpectraMax L instrument. Two independent duplicate assays were performed. The inhibition rate of each well was calculated based on all activity wells and background signal wells, with an average calculated for duplicate wells. Meanwhile, the inhibition rate was plotted using the professional graphing and analysis software PRISM 9.0, and the IC50 was calculated.
The inhibition rates of the compounds to be tested against the kinase activity of Wee1 were calculated using the following formula: Inhibition rate% = (Lumvehicle−Lumcompound)/(Lumvehicle−Lumblank) × 100% [formula] • Lumcompound: the luminescence of the sample treatment groups • Lumvehicle: the luminescence of the solvent control group • Lumblank: the luminescence of the blank group

The target of experiment [3] is YES1 kinase (Homo sapiens, UniProt P07947). Put plainly: YES1 protein kinase inhibitory activity assay (HTRF). It is filed as biochemical. The note with it: for IC50: HTRF, YES1 kinase, ATP 10 µM; for inhibition of the Yes target (in words): summary statement on the assay results. As for the experimental part: In this experiment, the capability of the compound MRANK-106 of the present disclosure to inhibit kinase activity was assessed by an HTRF method using a drug screening system based on the YES1 kinase.
YES1 kinase, sequence (P07947 whole entry): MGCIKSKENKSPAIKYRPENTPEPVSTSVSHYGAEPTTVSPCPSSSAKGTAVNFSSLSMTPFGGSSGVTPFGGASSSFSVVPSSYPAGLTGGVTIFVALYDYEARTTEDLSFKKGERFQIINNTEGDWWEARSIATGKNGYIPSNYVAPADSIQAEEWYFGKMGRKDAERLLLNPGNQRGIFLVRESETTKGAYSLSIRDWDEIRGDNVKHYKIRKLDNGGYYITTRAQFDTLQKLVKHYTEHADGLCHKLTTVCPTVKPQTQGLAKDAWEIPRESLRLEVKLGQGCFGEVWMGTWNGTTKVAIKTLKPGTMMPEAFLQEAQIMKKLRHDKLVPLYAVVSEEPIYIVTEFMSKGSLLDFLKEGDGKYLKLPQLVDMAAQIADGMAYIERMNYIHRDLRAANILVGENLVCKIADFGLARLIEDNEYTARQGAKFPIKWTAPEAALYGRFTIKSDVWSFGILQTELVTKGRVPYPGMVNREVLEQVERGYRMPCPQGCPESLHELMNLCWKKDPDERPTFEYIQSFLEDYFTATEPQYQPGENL
Table 3-1. Information about reagents and consumables
The enzymatic activity conditions and HTRF system formulation are shown in Table 3-3; the experimental conditions for the kinase activity assay are shown in Table 3-4. Table 3-3. HTRF system formulation
Table 3-4. The experimental conditions for the kinase activity assay
The test compound MRANK-106 was dissolved in DMSO, and the solution was vortexed and shaken for thorough mixing. The solution was serially diluted 3-fold with DMSO, with the initial concentration being 503 nM.
① A 2× ATP/substrate solution and a 2× kinase solution were formulated using a kinase reaction buffer.
② 50 nL of the compound dilution was transferred to a 384 detection plate using Echo 655. After centrifugation, 2.5 µL of a 2× kinase solution was added to the 384 detection plate. The plate was centrifuged at 1000 rpm for 1 min and incubated at 25 °C for 10 min.
② 2.5 µL of the 2× substrate and ATP solution was added to the 384 detection plate, and the plate was centrifuged at 1000 rpm for 1 min and incubated at 25 °C for 60 min.
④ A 2× XL665 and antibody detection reagent was formulated using a detection buffer.
⑤ 5 µL of a kinase detection reagent was added to the detection plate, and the plate was incubated at 25 °C. The plate was centrifuged at 1000 rpm for 1 min and incubated at 25 °C for 1 h.
⑥ The fluorescence signals at 620 nm (Cryptate) and 665 nm (XL665) were read using a BMG high-throughput drug-screening multi-mode microplate reader.
With the reading of the negative control set as an inhibition rate of 0% and the reading of the positive control set as an inhibition rate of 100%, the inhibition rate of each test solution was calculated using the following formula: [formula] • Datapositive control: the average of the positive control well values • Datanegative control : the average of the negative control well values
The IC50 (half maximal inhibitory concentration) of the compound was obtained using the following nonlinear fitting formulas: Y = Bottom + (Top−Bottom)/(1+10^(∧)((LogIC50−X)*HillSlope)) [formula] • X: the log value of the compound concentration • Y: the inhibition rate (% inh) of the compound
The Z' factor calculation equation: Z′ = 1−3(SDmin+SDmax)/(AVEmax−AVEmin) [formula] where: • Min is the positive control Data value, and Max is the negative control DMSO Data value; • SD stands for standard deviation, and AVE stands for average.

Setting [4] is: Homo sapiens, A-427, 72 h compound incubation.

Wee1 kinase, sequence (P30291 whole entry): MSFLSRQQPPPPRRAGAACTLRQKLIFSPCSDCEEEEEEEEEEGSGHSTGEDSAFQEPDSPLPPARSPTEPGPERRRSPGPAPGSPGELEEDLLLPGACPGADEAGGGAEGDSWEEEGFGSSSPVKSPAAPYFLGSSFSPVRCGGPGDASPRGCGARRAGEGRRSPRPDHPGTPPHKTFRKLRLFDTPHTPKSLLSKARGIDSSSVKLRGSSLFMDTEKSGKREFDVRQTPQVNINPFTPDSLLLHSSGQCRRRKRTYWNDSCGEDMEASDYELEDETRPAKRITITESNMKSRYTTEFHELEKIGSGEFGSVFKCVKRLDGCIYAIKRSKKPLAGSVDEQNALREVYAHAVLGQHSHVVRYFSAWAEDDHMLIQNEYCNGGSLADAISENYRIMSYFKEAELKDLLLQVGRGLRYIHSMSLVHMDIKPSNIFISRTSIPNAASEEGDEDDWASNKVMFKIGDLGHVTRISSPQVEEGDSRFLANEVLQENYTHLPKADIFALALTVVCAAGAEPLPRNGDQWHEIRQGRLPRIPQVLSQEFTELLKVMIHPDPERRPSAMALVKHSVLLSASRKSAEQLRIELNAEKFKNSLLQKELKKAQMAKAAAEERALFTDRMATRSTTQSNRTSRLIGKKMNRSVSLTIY

`Cc1cc(Nc2ncc3c(n2)N(C)CN(c2c(Cl)cccc2Cl)C3=O)ccc1C1CCN(C)CC1` [Debio 0123, reference compound] returned a 50% inhibitory concentration (IC50) in experiment [1] (72 h compound incubation) of 1610 nM.
`Cc1cc(Nc2ncc3c(=O)n4n(c3n2)-c2cccc(n2)C(C)(O)CCC=CC4)ccc1OC1(C)CCN(C)CC1` (stereo not shown) [Compound 89, (Z)-2-((4-((1,4-dimethylpiperidin-4-yl)oxy)-3-methylphenyl)amino)-12-hydroxy-12-methyl-7,10,11,12-tetrahydro-5H-13,17-(azeno)pyrimido[4',5':3,4]pyrazolo[1,2-a][1,2]diazacyclotridecin-5-one]: in experiment [2], the IC50 worked out at 66.8 nM and the “inhibition of the Weel target (in words)” value is listed as “strongly inhibited”. Moreover, in experiment [3], it took 18.5 nM to reach half-maximal inhibition (IC50) and the “inhibition of the Yes target (in words)” value is listed as “strongly inhibited”. Also, the concentration for half-maximal inhibition (IC50) in experiment [1] (setting [4]) was determined as 219 nM.
For the molecule `Cc1cc(Nc2ncc3c(=O)n4n(c3n2)-c2cccc(n2)[C@](C)(O)CCC=CC4)ccc1OC1CCN(C2COC2)CC1` [Compound 205, (R,Z)-12-hydroxy-12-methyl-2-((3-methyl-4-((1-(oxetan-3-yl)piperidin-4-yl)oxy)phenyl)amino)-7,10,11,12-tetrahydro-5H-13,17-(azeno)pyrimido[4',5':3,4]pyrazolo[1,2-a][1,2]diazacyclotridecin-5-one], in experiment [1] (setting [4]), half-maximal inhibition (IC50) required 163 nM.
Regarding `COc1cc(Nc2ncc3c(=O)n4n(c3n2)-c2cccc(n2)[C@](C)(O)CCC=CC4)ccc1OC1CCN(C)CC1` [Compound 143, (R,Z)-12-hydroxy-2-((3-methoxy-4-((1-methylpiperidin-4-yl)oxy)phenyl)amino)-12-methyl-7,10,11,12-tetrahydro-5H-13,17-(azeno)pyrimido[4',5':3,4]pyrazolo[1,2-a][1,2]diazacyclotridecin-5-one], half-maximal inhibition in experiment [1] (setting [4]) (IC50) was put at 65 nM. Also, the “activity in inhibiting cancer cell proliferation compared with reference compound Debio 0123 or ZN-c3” value in experiment [1] is recorded as “several times to several dozen times higher”.
`CN1CCN(Cc2ccc(Nc3ncc4c(=O)n5n(c4n3)-c3cccc(n3)C(C)(O)CCC=CC5)cc2)CC1` (stereo not shown) [Compound 214, (Z)-12-hydroxy-12-methyl-2-((4-((4-methylpiperazin-1-yl)methyl)phenyl)amino)-7,10,11,12-tetrahydro-5H-13,17-(azeno)pyrimido[4',5':3,4]pyrazolo[1,2-a][1,2]diazacyclotridecin-5-one] came in with an IC50 in experiment [1] (setting [4]) of 144 nM.
Same read-out and setting: next, `Cc1cc(Nc2ncc3c(=O)n4n(c3n2)-c2cccc(n2)[C@](C)(O)CCCCC4)ccc1OC1CCN(C)CC1` [Compound 28, (R)-12-hydroxy-12-methyl-2-((3-methyl-4-((1-methylpiperidin-4-yl)oxy)phenyl)amino)-7,8,9,10,11,12-hexahydro-5H-13,17-(azeno)pyrimido[4',5':3,4]pyrazolo[1,2-a][1,2]diazacyclotridecin-5-one]: 152 nM.
For the molecule `Cc1cc(Nc2ncc3c(=O)n4n(c3n2)-c2cccc(n2)C(C)(O)CC/C=C\C4)ccc1NC1CCN(C)CC1` (single isomer, unassigned) [Compound 203A], the IC50 was determined as 13.2 nM in experiment [2] and 71 nM in experiment [1] (setting [4]). In addition, the “activity in inhibiting cancer cell proliferation compared with reference compound Debio 0123 or ZN-c3” value in experiment [1] is listed as “several times to several dozen times higher”.
In the case of `Cc1cc(Nc2ncc3c(=O)n4n(c3n2)-c2cccc(n2)C(C)(O)CCC=CC4)ccc1OC1CN(C)[C@H]1C` (stereo partly drawn) [Compound 202, (Z)-2-((4-(((2S)-1,2-dimethylazetidin-3-yl)oxy)-3-methylphenyl)amino)-12-hydroxy-12-methyl-7,10,11,12-tetrahydro-5H-13,17-(azeno)pyrimido[4',5':3,4]pyrazolo[1,2-a][1,2]diazacyclotridecin-5-one], in experiment [2], the concentration for half-maximal inhibition (IC50) was 16.4 nM and the “inhibition of the Weel target (in words)” value is reported as “strongly inhibited”. In experiment [3], the IC50 came out at 18.8 nM and the “inhibition of the Yes target (in words)” value is given as “strongly inhibited”. The IC50 in experiment [1] (setting [4]) stood at 78 nM. In addition, in experiment [1], the “activity in inhibiting cancer cell proliferation compared with reference compound Debio 0123 or ZN-c3” value was “several times to several dozen times higher”.
As for `CCOP1(=O)CCN(c2ccc(Nc3ncc4c(=O)n5n(c4n3)-c3cccc(n3)C(C)(O)CCC=CC5)cc2C)CC1` (racemic) [Compound 182, (Z)-2-((4-(4-ethoxy-4-oxido-1,4-azaphosphinan-1-yl)-3-methylphenyl)amino)-12-hydroxy-12-methyl-7,10,11,12-tetrahydro-5H-13,17-(azeno)pyrimido[4',5':3,4]pyrazolo[1,2-a][1,2]diazacyclotridecin-5-one], the IC50 stood at 30.1 nM in experiment [2], 19.9 nM in experiment [3] and 160 nM in experiment [1] (setting [4]). The “inhibition of the Weel target (in words)” value in experiment [2] is listed as “strongly inhibited”. For the same molecule, the “inhibition of the Yes target (in words)” value in experiment [3] is given as “strongly inhibited”.
Take `[2H]C1(Oc2ccc(Nc3ncc4c(=O)n5n(c4n3)-c3cccc(n3)[C@](C)(O)CCC=CC5)cc2C)CCN(C)CC1` (single isomer, unassigned) [Compound 172A]: in experiment [2], half-maximal inhibition (IC50) required 6.5 nM and the “inhibition of the Weel target (in words)” value is listed as “strongly inhibited”. Further, in experiment [3], inhibition was half-maximal at 5.8 nM (IC50) and the “inhibition of the Yes target (in words)” value was “strongly inhibited”. In experiment [1] (setting [4]), this molecule had a half-maximal inhibitory concentration (IC50) of 15 nM. Further, the “activity in inhibiting cancer cell proliferation compared with reference compound Debio 0123 or ZN-c3” value in experiment [1] is reported as “several times to several dozen times higher”.
